Data taken from publication PMC10111420, “Optimization of Host Cell-Compatible, Antimicrobial Peptides Effective against Biofilms and Clinical Isolates of Drug-Resistant Bacteria” (ACS Infectious Diseases, 2023).
≈ marks a conversion by molar mass, not a printed value. Where a SMILES comes first, the peptide text is derived from it. [ ]: non-standard residue; d: D form.

Experiments:
[1] = test system: P. aeruginosa PAO1 (EYFP) pellicle biofilms; test: Pellicle biofilm assay, viable cell enumeration; format: cell-based, Pseudomonas aeruginosa
Procedure: Here, we directly compare the antibiofilm activity of D-CONGA and D-CONGA-Q7 using a mature pellicle biofilm of P. aeruginosa.[22] […] To determine the susceptibility of pellicle biofilms to D-CONGA and D-CONGA-Q7, we cultured 2-day-old biofilms as described in the Methods section. The coverslip-adhered biofilms were exposed to challenge solution for 24 h prior to staining with SYTOX red and imaging with CLSM for EYFP, which indicates live cells, and for SYTOX Red which stains dead cells and extracellular DNA. […] The % cell survival was quantitated in two ways: (i) COMSTAT was used to compare biofilm biomass in CLSM images by estimating the biofilm biovolume, which is calculated as the overall volume/substratum area (μm^3/μm^2).[24],[25] […] (ii) The biofilms were dispersed mechanically for subsequent enumeration of viable cells such that % survival is expressed as the ratio (CFUuntreated biofilm/CFUtreated biofilm).
The susceptibility of biofilm-embedded P. aeruginosa cells to the antimicrobial peptides was studied as reported previously[23] using a P. aeruginosa PAO1 strain expressing enhanced yellow fluorescent protein (EYFP).[22] The EYFP-expressing P. aeruginosa strain was routinely grown in Pseudomonas Isolation (PI) media (20 g/L peptone, 0.3 g/L, MgCl2·6H2O, 10 g/L, K2SO4, 25 mg/L irgasan, and 20 mL/L glycerol, pH 7.0). […] Iron supplementation was carried out by addition of a small volume of filter-sterilized 10 mM (NH4)2Fe(SO4)2 (pH ∼ 2.0) solution.
In brief: Starter cultures (5 mL PI media supplemented with 10 μM Fe) were grown (14 h) from a single-colony shaking (220 rpm) at 37 °C. To grow the pellicle biofilms, starter cultures were diluted to OD600 = 0.001 in 4 mL of PI media supplemented with 20 μM Fe, placed in 35 × 10 mm Petri dishes, and incubated statically at 30 °C for 48 h. The pellicles were harvested using circular (1.5 cm diameter) glass coverslips by gently allowing the surface of a coverslip to contact the biofilm at the air–liquid interface. […]

human RBCs = format: cell-based
Summary of the method: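 Washed human O+ erythrocytes (2 × 10^8 cells/mL stock, mixed 1:1) were incubated with peptide serially diluted from 100 μM in PBS for 1 h at 37 °C. Released hemoglobin was read at 410 nm in supernatant; fractional hemolysis calculated against 1% Triton (100%) and 0% lysis controls, averaged over ≥3 experiments.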

luminescent MRSA = test: Murine wound infection model, MRSA; format: in vivo, CD1 mice; settings: 75 μg in 20 μL water with 0.025% acetic acid, topical, every 8 h for the first 5 days; luminescence (IVIS), Days 1–3; four animals per group
Procedure: (§1) Wound luminescence values were recorded once per day for each animal during the experiment using an IVIS whole animal imaging system. Total luminescence values, integrated over the entire wound area, were averaged for the four animals in each group. Treated versus control values were compared for each day using a two-sample t-test. Multiple comparisons were corrected using the method of Bonferroni.

[2] = test system: MRSA SAP400, a USA400 strain; test: microbe, parasite or virus in culture; settings: USA400
Procedure: (§2) Subcultures, prepared by inoculating 25 mL of fresh tryptic soy broth (TSB) with 200 μL of an overnight culture, were grown to log phase (OD600 = 0.3–0.6), after which cell counts were determined by measuring the OD600 (1.0 = 5 × 10^8 CFU/mL for E. coli, 4 × 10^8 CFU/mL for K. pneumoniae, 4 × 10^8 CFU/mL for P. aeruginosa, 1.5 × 10^8 CFU/mL for S. aureus). Bacterial cells were diluted to appropriate concentrations in TSB. We used the following clinical bacterial isolates of Klebsiella pneumoniae in this study: Strains KP6, KP46, NDM-1, KP396, and KP398 have been previously described.[43] ST58 strains C2, C3, and I2 are also described.[41] […] MRSA, […] S. aureus strain, is SAP400, a USA400 strain of community-acquired MRSA. […] The second independent set of K. pneumoniae isolates are previously described.[20],[21]
(§3) The antibiotics were serially diluted by a factor of 2:3 horizontally across 96-well plates from Corning, 25 μL per well. One column was reserved for controls. For the assays performed in the presence of RBC, type O+ human RBCs at 0 or 2.5 × 10^9 cells/mL were added in 50 μL aliquots to all wells. Following a 30-min incubation, 50 μL of TSB, inoculated with 5 × 10^5 CFU/mL, was added to all wells, and plates were incubated overnight at 37 °C. Following overnight incubation at 37 °C, the OD600 was measured (values of less than 0.1 were considered sterilized). To assess bacterial growth in the assays with RBC, the OD600 was measured after a second-day inoculation with 10 μL of solution from the original plate added to 100 μL of sterile TSB followed by overnight incubation.
(§4) Experiments were repeated four to eight times independently, with pairs of replicate measurements on each 96-well plate. After overnight growth, optical densities were measured at 660 nm and the sterilized wells were identified by having O.D. < 0.08. Nonsterilized wells were nearly opaque with OD > 0.6. For each measurement, we recorded the largest dilution that sterilized the bacteria. Statistics are done on dilution numbers, rather than calculated concentrations, because only the former have normal distributions.

[3] = test system: Pseudomonas aeruginosa clinical isolates; test: microbe, parasite or virus in culture; settings: clinical isolates
Procedure: as §2, §3, §4

[4] = test system: K. pneumoniae clinical isolates
Procedure: as §2, §3, §4

K. pneumoniae isolates = test: Susceptibility of all K. pneumoniae isolates (both sets); format: cell-based, Klebsiella pneumoniae; settings: both sets of clinical isolates
Source text: In parallel experiments, resistance of P. aeruginosa to multiple conventional antibiotics grew rapidly over just a few passages.[5] […] The mechanism of resistance avoidance is currently unknown. Further studies will be required to understand the mechanistic basis for the resistance avoidance of D-CONGA-Q7 against K. pneumoniae isolates. These insights will be particularly important for the advancement of resistance-avoiding AMPs into the clinic.

[5] = test system: 14 clinical isolates of resistant bacterial strains; test: Broth dilution, summary over the 14 clinical isolates of the first set; format: cell-based; settings: 14 clinical isolates of the first set
Procedure: In Figure 4B, we plot the fraction of isolates sterilized as functions of antibiotic concentration.
as §2, §3

[6] = test system: luminescent P. aeruginosa (PAO1); test: Murine wound infection model, P. aeruginosa; format: in vivo, CD1 mice; settings: 75 μg in 20 μL water with 0.025% acetic acid, topical, every 8 h for the first 5 days; luminescence (IVIS), Days 1–3; four animals per group
Procedure: as §1

[7] = test system: K. pneumoniae clinical isolates; test: microbe, parasite or virus in culture; settings: clinical isolates
Procedure: as §2
The antibiotics were serially diluted by a factor of 2:3 horizontally across 96-well plates from Corning, 25 μL per well. One column was reserved for controls. For the assays performed in the presence of RBC, type O+ human RBCs at 0 or 2.5 × 10^9 cells/mL were added in 50 μL aliquots to all wells. […] To assess bacterial growth in the assays with RBC, the OD600 was measured after a second-day inoculation with 10 μL of solution from the original plate added to 100 μL of sterile TSB followed by overnight incubation.
as §4

How did the “Reduction of biofilm CFU” value ([1]; 2 μM, 48 h pellicle biofilm, 24 h challenge, dispersing and counting viable cells) turn out when CC(C)C[C@@H](NC(=O)[C@@H](CCC(N)=O)NC(=O)[C@@H](CCCNC(=N)N)NC(=O)[C@@H](CCCNC(=N)N)NC(=O)[C@@H](C)NC(=O)[C@@H](Cc1c[nH]c2ccccc12)NC(=O)[C@@H](CCCNC(=N)N)NC(=O)[C@H](N)CCCNC(=N)N)C(=O)N[C@H](C)C(=O)N[C@H](Cc1ccccc1)C(=O)N[C@H](C)C(=O)N[C@H](Cc1ccccc1)C(=O)N[C@H](CCCNC(=N)N)C(=O)N[C@H](CCCNC(=N)N)C(N)=O [D-CONGA-Q7] (H-[dR][dR][dW][dA][dR][dR][dQ][dL][dA][dF][dA][dF][dR][dR]-NH2; N-terminus assumed) was run?
Its value is 70%.

And the “Reduction of viable biofilm bacteria” value ([1]; 8 μM peptide, 2-day-old pellicle biofilm, 24 h treatment in AB challenge media, 30 °C)?
The value was ≥ 90%.

And the “Hemolysis at 100 μM (fractional hemolysis)” value (human RBCs)?
Its value is 0.07.

What about the “Maximum reduction of MRSA burden” value (luminescent MRSA) of the same molecule?
Its value is ≥ 4 logs.

And the “MIC, MRSA USA400” value [2]?
Its value is 1.5 µM (≈ 2.83 µg/mL).

What about the “MIC, PA(mucoid)” value [3] of the same molecule?
Its value is 4.2 µM (≈ 7.93 µg/mL).

What about the “MIC, PA(non-mucoid)” value [3] of the same molecule?
Its value is 1.1 µM (≈ 2.08 µg/mL).

What about the “K. Pneumoniae Isolate MIC, 1000527” value [4] of the same molecule?
Its value is 6.8 µM.

What about the “K. Pneumoniae Isolate MIC, 1002565” value [4] of the same molecule?
Its value is 5.1 µM.

And the “K. Pneumoniae Isolate MIC, 1100770” value [4]?
Its value is 5.1 µM.

What about the “K. Pneumoniae Isolate MIC, 1100975” value [4] of the same molecule?
Its value is 3.4 µM.

And the “K. Pneumoniae Isolate MIC, ATCC 43816” value [4]?
Its value is 6.8 µM.

And the “K. Pneumoniae Isolate MIC, ATCC 700721” value [4]?
Its value is 6.8 µM.

And the “K. Pneumoniae Isolate MIC, K6” value [4]?
Its value is 3.4 µM.

What about the “K. Pneumoniae Isolate MIC, K 6.1” value [4] of the same molecule?
Its value is 3.4 µM.

What about the “K. Pneumoniae Isolate MIC, K 6.2” value [4] of the same molecule?
The value was 5.1 µM.

What about the “K. Pneumoniae Isolate MIC, KP 80” value [4] of the same molecule?
The value was 3.4 µM.

What about the “K. Pneumoniae Isolate MIC, KP NIH 1” value [4] of the same molecule?
The value was 6.8 µM.

And the “K. Pneumoniae Isolate MIC, KP NIH 10” value [4]?
The value was > 25 µM.

And the “K. Pneumoniae Isolate MIC, KP NIH 24” value [4]?
The value was 6.8 µM.

What about the “K. Pneumoniae Isolate MIC, KP NIH 27” value [4] of the same molecule?
The value was 3.4 µM.

What about the “K. Pneumoniae Isolate MIC, KP NIH 29” value [4] of the same molecule?
The value was 2.5 µM.

And the “K. Pneumoniae Isolate MIC, KP NIH 30” value [4]?
Its value is 3.4 µM.

And the “K. Pneumoniae Isolate MIC, KP NIH 31” value [4]?
Its value is 3.4 µM.

And the “K. Pneumoniae Isolate MIC, KP NIH 32” value [4]?
Its value is 6.8 µM.

And the “K. Pneumoniae Isolate MIC, KP NIH 33” value [4]?
The value was 1.3 µM.

And the “K. pneumoniae isolates susceptible” value (K. pneumoniae isolates)?
Its value is 28 of 29.

And the “Fraction of clinical isolates sterilized at 2 μM” value ([5]; 2 μM)?
Its value is “half”.

And the “Fraction of clinical isolates sterilized at 5 μM” value ([5]; 5 μM)?
Its value is 12/14.

And the “Reduction of P. aeruginosa burden” value [6]?
Its value is ~2 logs.

What about the “MIC, KP 6” value [7] of the same molecule?
The value was 3.2 µM (≈ 6.05 µg/mL).

What about the “MIC, KP 46” value [7] of the same molecule?
Its value is 2.2 µM (≈ 4.16 µg/mL).

And the “MIC, KP 398” value [7]?
The value was 3.8 µM (≈ 7.18 µg/mL).

What about the “MIC, KP (CRE)” value [7] of the same molecule?
The value was 2.0 µM (≈ 3.78 µg/mL).

What about the “MIC, KP ATCC 33495” value [7] of the same molecule?
The value was 2.4 µM (≈ 4.53 µg/mL).

What about the “MIC, KP ST258 C2” value [7] of the same molecule?
Its value is 8.9 µM (≈ 16.8 µg/mL).

What about the “MIC, KP ST258 C3” value [7] of the same molecule?
Its value is 14 µM (≈ 26.4 µg/mL).

And the “MIC, KP ST258 I2” value [7]?
Its value is 1.4 µM (≈ 2.64 µg/mL).

What about the “MIC, KP ST396” value [7] of the same molecule?
The value was 1.9 µM (≈ 3.59 µg/mL).
